Assays:
SF 763 cells [1] = assay: Growth of GBM cells in continuous 14-day culture with ThAcr2; type: cell-based, human; conditions: 0.5, 1 and 2 μM ThAcr2, continuous 14 days, more pronounced effect on SF 763
Description: (§1) GBM cells were maintained in culture for 14 days in the presence of 0.5, 1 and 2 μM ThAcr2.

SF 767 cells [2] = assay: as above; type: cell-based, human; conditions: 0.5, 1 and 2 μM ThAcr2, continuous 14 days
Description: as §1

[3] = system: model guanine quadruplexes inspired from human telomeres; assay: Affinity for guanine quadruplexes; type: binding; conditions: 1:2 mixture of mono- and di-cation species
From the text: U-shaped molecules holding two potentially intercalating units 7 Å apart have been designed to have a moderate affinity for duplex DNA on the basis of the nearest neighbor exclusion principle but may display strong binding affinity for other architectures such as guanine quadruplexes.

glioblastoma cells = assay: Administration of compositions comprising ThAcr2 to glioblastoma cells; type: cell-based
GBM cells = assay: Flow cytometry of cell cycle distribution and apoptosis (annexin-propidium iodide); type: cell-based, human; conditions: 7 days
Description: Using flow cytometry, cell cycle distribution and apoptosis in cells treated for 7 days with 0.5-2 μM ThAcr2 were examined. […] The percentage of cells in the G2/M phase increased from 10% to 20%. The annexin-propidium iodide (apoptotic) fraction was essentially identical (9-11%) in control and treated cells at lower ThAcr2 concentrations ([…]) but increased to 34% in cells treated with 2 μM ThAcr2.

SF 763 cell = assay: Cytogenetic analysis of telomere fusions; type: cell-based, human
Description: The fusion frequency was 0.3 in untreated cells and 1.6 in ThAcr2-treated cells.
(§2) The effects of 1 μM ThAcr2 on telomere and telomerase after 7 and 14 days of treatment were evaluated.

[4] = system: telomere and telomerase (hTERT) in GBM cell lines SF 763 and SF 767; assay: Effects on telomere and telomerase (telomere length, hTERT expression by real-time RT-PCR); type: cell-based, human; conditions: 1 μM ThAcr2, 7 and 14 days
Description: as §2

GBM tumor cells = assay: Clonogenic survival, ThAcr2 combined with radiation, schedule of combination; type: cell-based, human
Description: (§3) To explore the effect of ThAcr2 in combination with ionizing radiation on GBM cells, clonogenic survival of SF 763 and SF 767 cells was analyzed. Although both cell lines were radio-resistant, the surviving fraction after 2 Gy was greater in SF 763 (80%) than in SF 767 cells (56%), indicating stronger resistance of SF 763 cells to radiation.
(§4) For combination experiments, non-toxic sub-apoptotic ThAcr2 concentrations of 0.5 and 1 μM were utilized. […] SF 763 cells were treated with […] ThAcr2 for 7 days, then replated and irradiated with a 3 Gy-dose of X-rays. SF 767 cells were treated with 0.5 μM ThAcr2 for 14 days, then replated and irradiated with a 2-Gy dose. […] The combination of ThAcr2 with radiation was additive when the ThAcr2 treatment started after irradiation.

SF 763 cells [5] = assay: Clonogenic survival, ThAcr2 combined with X-rays; type: cell-based, human; conditions: 1 μM ThAcr2 for 7 days, replated, 3 Gy X-rays, corrected for ThAcr2 alone
Description: as §3, §4

SF 767 cells [6] = assay: Clonogenic survival, ThAcr2 combined with X-rays; type: cell-based, human; conditions: 0.5 μM ThAcr2 for 14 days, replated, 2-Gy X-rays, corrected for ThAcr2 alone
Description: as §3, §4

SF 763 cells [7] = assay: Long-term (50 days) treatment with ThAcr2; type: cell-based, human; conditions: from day 30
Description: (§5) To further investigate the tumor-growth inhibition effect of ThAcr2 as a single agent, the GBM cells were exposed to 1 μM ThAcr2 for 50 days.

SF 767 cells [8] = assay: Long-term (50 days) treatment with ThAcr2; type: cell-based, human; conditions: 1 μM ThAcr2 for 50 days, from day 30
Description: as §5

[9] = system: GBM cell lines SF 763 and SF 767; assay: Short-term (3 days) cell viability; type: cell-based, human; conditions: 0.5, 1 and 2 μM

## 4,6-bis-(6-(10-N-methylacrid-9-ylinium)pyridin-2-yl)-pyrimidine bistriflate [ThAcr2]
SF 763 cells [1]
  tumor cell growth: inhibited tumor cell growth
SF 767 cells [2]
  tumor cell growth: inhibited tumor cell growth
[3]
  affinity for model guanine quadruplexes: strong affinity
Glioblastoma cells
  glioblastoma cells after administration: reduction of glioblastoma cells
GBM cells; 2 μM ThAcr2
  annexin-propidium iodide (apoptotic) fraction: 34%
GBM cells; 0.5-2 μM ThAcr2, untreated 10%
  percentage of cells in the G2/M phase: 20%
GBM cells; lower ThAcr2 concentrations (0.5 and 1 μM), identical in control
  annexin-propidium iodide (apoptotic) fraction: 9-11%
SF 763 cell; 1 μM ThAcr2, day 7
  telomere fusions (cytogenetic analysis): multiple telomere fusions
SF 763 cell; SF 763 metaphase, FIG. 3, untreated cells 0.3
  telomere fusion frequency: 1.6
[4]
  telomere length: did not reduce telomere length
GBM tumor cells; FIG. 4, P<0.001
  clonogenic survival with combination therapy versus radiation alone: markedly decreased
GBM tumor cells; ThAcr2 treatment started after irradiation
  combination of ThAcr2 with radiation: additive
GBM tumor cells; cells continuously treated before and after irradiation
  combination of ThAcr2 with radiation: supra-additive or had a synergistic effect
SF 763 cells [5]
  reduction of surviving fraction of tumor cells: 2.5 fold
SF 767 cells [6]
  reduction of surviving fraction of tumor cells: 2.3 fold
SF 763 cells [7]; 1 μM ThAcr2 for 50 days
  rate of cell proliferation after long-term treatment: increase in the rate of cell proliferation
SF 763 cells [7]; 1 μM ThAcr2 long-term
  overexpression of telomerase: up to 7 fold
SF 767 cells [8]
  rate of cell proliferation after long-term treatment: increase in the rate of cell proliferation
[9]
  short-term cell viability: non-toxic

From patent publication US20080119492A1, “Compositions and methods for treating cancer and other diseases characterized by abnormal cell proliferation” (priority 2005, published 2008)
